Measured values reported in patent publication US20130005710A1, “AMINOPYRIDINE DERIVATIVE” (priority 2009, published 2013).

These molecules were tested on rat mixed glial culture (assay: Neurogenesis promoting effect in rat mixed glial culture (neuronal differentiation, beta-tubulin III ELISA)). Settings: 1 μM compound + rhIGF-1 100 ng/ml, 3 days; control (only rhIGF-1) = 100%; absorbance 450 nm.
Type: cell-based
Procedure: The hippocampus and the cerebral cortex were excised from each of 3-day-old SD rats. A cell suspension was prepared therefrom using a neuron dispersion kit (Sumitomo Bakelite Co., Ltd., MB-X9901) and inoculated at concentration of 10^5 cells/well to a 96-well plate coated with type I collagen (AGC Techno Glass Co., Ltd., 4860-010). The cells were cultured in a growth medium (D-MEM/F12 containing 10% FBS and PS) at 37° C. for 4 days under 5% CO2 conditions.
After the culture, the medium was replaced by a differentiation medium (D-MEM/F12 containing PS), and rhIGF-1 (R&D Systems, 291-G1-250, final concentration: 100 ng/ml) and 1 μM compound were added thereto. The cells were further cultured for 3 days. The cultured cells were fixed in 4% paraformaldehyde-PBS (Muto Pure Chemicals Co., Ltd.), subjected to membrane permeation treatment with 0.1% Triton X-100 PBS, and blocked with Block Ace solution (DS Pharma Biomedical Co., Ltd., UK-B80). Anti-neuron-specific class III beta-tubulin Antibody (R&D Systems, MAB1195, clone Tuj-1) was diluted 1000-fold and used as a primary antibody. Anti-Mouse Ig, HRP-Linked F(ab′)2 Fragment Sheep (GE Healthcare, NA9310) was diluted 10000-fold and used as a secondary antibody. A plate washer (BIO-TEK INSTRUMENTS ELX405) was used in washing operation. TMB Microwell Peroxidase Substrate System (Kirkegaard & Perry Laboratories, 50-76-00) was used in color reaction, which was performed for 10 minutes and stopped by addition of 1 M phosphoric acid. Absorbance at 450 nm was measured using a plate reader (Labsystems Multiskan BICHROMATIC).
The rate of increase in the absorbance of the compound-supplemented group (compound+rhIGF-1) relative to that of a compound-unsupplemented group (control, only rhIGF-1) as 100% was determined in terms of % control.

SMILES	Ratio of absorbance of compound-supplemented group to control (%)
COc1ccc(N2CCOC(c3ccc(C(F)(F)F)cc3)C2)c(-c2ccc(N(C)C)cc2)n1 (single isomer, unassigned) [Example 5, 4-(6-methoxy-3-{2-[4-(trifluoromethyl)phenyl]morpholin-4-yl}pyridin-2-yl)-N,N-dimethylaniline]	765
COc1ccc(N2CCOC(c3ccc(C(F)(F)F)cc3)C2)c(-c2ccc(N(C)C)cc2)n1 (single isomer, unassigned) [Example 6, 4-(6-methoxy-3-{2-[4-(trifluoromethyl)phenyl]morpholin-4-yl}pyridin-2-yl)-N,N-dimethylaniline]	134

Same assay, conditions: Rattus norvegicus, 72 h, 1 μM compound + rhIGF-1 100 ng/ml, 3 days; control (only rhIGF-1) = 100%; absorbance 450 nm; read-out: Ratio of absorbance of compound-supplemented group to control (%)

SMILES	activity at 1 µM [%]
COc1ccc(N2CCOC(c3cccc(C(F)(F)F)c3)C2)c(-c2ccc(N(C)C)cc2)n1 (centres unmarked) [Example 2, 4-(6-methoxy-3-{2-[3-(trifluoromethyl)phenyl]morpholin-4-yl}pyridin-2-yl)-N,N-dimethylaniline]	448
COc1ccc(C2CN(c3ccc(OC)nc3-c3ccc(N(C)C)cc3)CCO2)cc1 (centres unmarked) [Example 3, 4-{6-methoxy-3-[2-(4-methoxyphenyl)morpholin-4-yl]pyridin-2-yl}-N,N-dimethylaniline]	303
COc1ccc(N2CCOC(Cc3cccc(C(F)(F)F)c3)C2)c(-c2ccc(N(C)C)cc2)n1 (centres unmarked) [Example 9, 4-(6-methoxy-3-{2-[3-(trifluoromethyl)benzyl]morpholin-4-yl}pyridin-2-yl)-N,N-dimethylaniline]	321
CCOC(=O)N1CCN(c2ccc(OC)nc2-c2ccc(N(C)C)cc2)CC1c1ccc(OC)cc1 (centres unmarked) [Example 13, Ethyl 4-{2-[4-(dimethylamino)phenyl]-6-methoxypyridin-3-yl}-2-(4-methoxyphenyl)piperazine-1-carboxylate]	285
COc1ccc(C2CN(c3ccc(OC)nc3-c3ccc(N(C)C)cc3)CCN2)cc1 (centres unmarked) [Example 14, 4-{6-methoxy-3-[3-(4-methoxyphenyl)piperazin-1-yl]pyridin-2-yl}-N,N-dimethylaniline]	260
COc1ccc(N2CCN(c3ccc(Cl)cc3)CC2)c(-c2ccc(N(C)C)cc2)n1 [Example 24, 4-{3-[4-(4-chlorophenyl)piperazin-1-yl]-6-methoxypyridin-2-yl}-N,N-dimethylaniline]	462
COc1ccc(N2CCN(c3ccc(OC)c(OC)c3)CC2)c(-c2ccc(N(C)C)cc2)n1 [Example 26, 4-{3-[4-(3,4-dimethoxyphenyl)piperazin-1-yl]-6-methoxypyridin-2-yl}-N,N-dimethylaniline]	259
COc1ccc(CC2CN(c3ccc(OC)nc3-c3ccc(N(C)C)cc3)CCN2C)cc1 (centres unmarked) [Example 34, 4-{6-methoxy-3-[3-(4-methoxybenzyl)-4-methylpiperazin-1-yl]pyridin-2-yl}-N,N-dimethylaniline]	783
COc1ccc(N2CCN(c3ccc(OC)nc3-c3ccc(OC(F)(F)F)cc3)CC2)cc1 [Example 49, 1-(4-methoxyphenyl)-4-{6-methoxy-2-[4-(trifluoromethoxy)phenyl]pyridin-3-yl}piperazine]	887
COc1ccc(-c2nc(OC)ccc2N2CCN(c3ccc(OC)cc3)CC2)cc1 [Example 50, 1-[6-methoxy-2-(4-methoxyphenyl)pyridin-3-yl]-4-(4-methoxyphenyl)piperazine]	546
COc1ccc(N2CCN(c3ccc(OC)nc3-c3ccc(C(C)C)cc3)CC2)cc1 [Example 51, 1-{6-methoxy-2-[4-(1-methylethyl)phenyl]pyridin-3-yl}-4-(4-methoxyphenyl)piperazine]	856
COc1ccc(N2CCN(c3ccc(OC)nc3-c3ccc(OC(C)C)cc3)CC2)cc1 [Example 52, 1-{6-methoxy-2-[4-(1-methylethoxy)phenyl]pyridin-3-yl}-4-(4-methoxyphenyl)piperazine]	731
COc1ccc(N2CCN(c3ccc(OC)nc3-c3ccc4c(c3)CC(C)(C)O4)CC2)cc1 [Example 60, 1-[2-(2,2-dimethyl-2,3-dihydro-1-benzofuran-5-yl)-6-methoxypyridin-3-yl]-4-(4-methoxyphenyl)piperazine]	218
CCOc1ccc(-c2nc(OC)ccc2N2CCN(c3ccc(OC)cc3)CC2)cc1F [Example 62, 1-[2-(4-ethoxy-3-fluorophenyl)-6-methoxypyridin-3-yl]-4-(4-methoxyphenyl)piperazine]	439
COc1ccc(C2(O)CCN(c3ccc(OC)nc3-c3ccc(OC(F)(F)F)cc3)CC2)cc1 [Example 75, 4-(4-methoxyphenyl)-1-{6-methoxy-2-[4-(trifluoromethoxy)phenyl]pyridin-3-yl}piperidin-4-ol]	249
COc1ccc(N2CCCN(c3ccc(OC)nc3-c3ccc(N(C)C)cc3)CC2)cc1 [Example 85, 4-{6-methoxy-3-[4-(4-methoxyphenyl)-1,4-diazepan-1-yl]pyridin-2-yl}-N,N-dimethylaniline]	385
COc1ccc(N2CCCN(c3ccc(OC)nc3-c3ccc(N(C)C)cc3)CC2)c(F)c1 [Example 87, 4-{3-[4-(2-fluoro-4-methoxyphenyl)-1,4-diazepan-1-yl]-6-methoxypyridin-2-yl}-N,N-dimethylaniline]	224
COc1ccc(N2CCCN(c3ccc(OC)c(OC)c3)CC2)c(-c2ccc(N(C)C)cc2)n1 [Example 89, 4-{3-[4-(3,4-dimethoxyphenyl)-1,4-diazepan-1-yl]-6-methoxypyridin-2-yl}-N,N-dimethylaniline]	379
COc1ccc(N2CCN(c3ccc(OC)nc3-c3ccc(N(C)C)cc3)CCC2=O)cc1 [Example 92, 1-{2-[4-(dimethylamino)phenyl]-6-methoxypyridin-3-yl}-4-(4-methoxyphenyl)-1,4-diazepan-5-one]	449
COc1ccc(C2CCN(c3ccc(OC)nc3-c3ccc(N(C)C)cc3)CCN2C)cc1 (centres unmarked) [Example 98, 4-{6-methoxy-3-[5-(4-methoxyphenyl)-4-methyl-1,4-diazepan-1-yl]pyridin-2-yl}-N,N-dimethylaniline]	397
CCOc1ccc(-c2nc(OC)ccc2N2CCC(c3ccc(OC)cc3)N(CC)CC2)cc1 (centres unmarked) [Example 108, 1-[2-(4-ethoxyphenyl)-6-methoxypyridin-3-yl]-4-ethyl-5-(4-methoxyphenyl)-1,4-diazepane]	773
CCOc1ccc(-c2nc(OC)ccc2N2CCN(c3ccc(OC)cc3)CC2)c(F)c1 [Example 113, 1-[2-(4-ethoxy-2-fluorophenyl)-6-methoxypyridin-3-yl]-4-(4-methoxyphenyl)piperazine]	717
COc1ccc(N2CCN(c3ccc(OC)nc3-c3ccc(N(C)C)cc3)CC(C)C2=O)cc1 (centres unmarked) [Example 118, 1-{2-[4-(dimethylamino)phenyl]-6-methoxypyridin-3-yl}-4-(4-methoxyphenyl)-6-methyl-1,4-diazepan-5-one]	528
COc1ccc(N2CCN(c3ccc(OC)nc3-c3ccc(N(C)C)cc3)CC(C)(C)C2)cc1 [Example 119, 4-{6-methoxy-3-[4-(4-methoxyphenyl)-6,6-dimethyl-1,4-diazepan-1-yl]pyridin-2-yl}-N,N-dimethylaniline]	760
COc1ccc(N2CCN(c3ccc(OC)nc3-c3ccc(N(C)C)cc3)CCC2C)cc1 (centres unmarked) [Example 134, 4-{6-methoxy-3-[4-(4-methoxyphenyl)-5-methyl-1,4-diazepan-1-yl]pyridin-2-yl}-N,N-dimethylaniline]	630
COc1ccc(N2CCN(c3c(C)cc(OC)nc3-c3ccc(N(C)C)cc3)CC2)cc1 [Example 159, 4-{6-methoxy-3-[4-(4-methoxyphenyl)piperazin-1-yl]-4-methylpyridin-2-yl}-N,N-dimethylaniline]	611
COc1ccc(N2CCN(c3ccc(OC)nc3-c3ccoc3)CC2)cc1 [Example 160, 1-(2-furan-3-yl-6-methoxypyridin-3-yl)-4-(4-methoxyphenyl)piperazine]	220
CCOc1ccc(-c2nc(OC)cc(C)c2N2CCN(c3ccc(OC)cc3)CC2)cn1 [Example 168, 6′-ethoxy-6-methoxy-3-[4-(4-methoxyphenyl)piperazin-1-yl]-4-methyl-2,3′-bipyridine]	584
COc1ccc(N2CCN(c3ccc(OC)nc3-c3cnn(C)c3)CC2)cc1 [Example 169, 1-[6-methoxy-2-(1-methyl-1H-pyrazol-4-yl)pyridin-3-yl]-4-(4-methoxyphenyl)piperazine]	255
COc1ccc(N2CCN(c3ccc(OC)nc3-c3ccc4c(cnn4C)c3)CC2)cc1 [Example 171, 5-{6-methoxy-3-[4-(4-methoxyphenyl)piperazin-1-yl]pyridin-2-yl}-1-methyl-1H-indazole]	312
